From ChEMBL document CHEMBL1201862, “PubChem BioAssay data set” (2004)
Activity calls are given as the source filed them.

Key:
[1] = target: DNA (cytosine-5)-methyltransferase 1 (Homo sapiens, UniProt P26358); assay: DNMT1 methyltransferase inhibitors, confirmation, biochemical, fluorescent molecular beacon (AID 602386); assay type: functional
[2] = target: 26S proteasome non-ATPase regulatory subunit 14 (Homo sapiens, UniProt O00487); assay: inhibition of proteasome subunit RPN11 – biochemical, fluorescence polarization, uHTS hits, confirmation (AID 602368); assay type: functional
Sequence of 26S proteasome non-ATPase regulatory subunit 14 (O00487 whole entry): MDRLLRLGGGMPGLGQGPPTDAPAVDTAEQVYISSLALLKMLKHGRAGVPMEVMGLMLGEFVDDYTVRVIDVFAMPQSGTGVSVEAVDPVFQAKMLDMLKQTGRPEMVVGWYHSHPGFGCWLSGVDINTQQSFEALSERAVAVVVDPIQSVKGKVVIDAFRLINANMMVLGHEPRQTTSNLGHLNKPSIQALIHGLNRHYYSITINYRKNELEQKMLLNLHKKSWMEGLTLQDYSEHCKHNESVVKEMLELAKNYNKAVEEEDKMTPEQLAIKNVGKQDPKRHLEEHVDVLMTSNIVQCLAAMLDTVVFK

[3] = target: 72 kDa type IV collagenase (Homo sapiens, UniProt P08253); assay: Dose Response validation of uHTS RPN11 inhibitor hits using a MMP-2 Fluorescence assay.; assay type: functional
Sequence of 72 kDa type IV collagenase (P08253 whole entry): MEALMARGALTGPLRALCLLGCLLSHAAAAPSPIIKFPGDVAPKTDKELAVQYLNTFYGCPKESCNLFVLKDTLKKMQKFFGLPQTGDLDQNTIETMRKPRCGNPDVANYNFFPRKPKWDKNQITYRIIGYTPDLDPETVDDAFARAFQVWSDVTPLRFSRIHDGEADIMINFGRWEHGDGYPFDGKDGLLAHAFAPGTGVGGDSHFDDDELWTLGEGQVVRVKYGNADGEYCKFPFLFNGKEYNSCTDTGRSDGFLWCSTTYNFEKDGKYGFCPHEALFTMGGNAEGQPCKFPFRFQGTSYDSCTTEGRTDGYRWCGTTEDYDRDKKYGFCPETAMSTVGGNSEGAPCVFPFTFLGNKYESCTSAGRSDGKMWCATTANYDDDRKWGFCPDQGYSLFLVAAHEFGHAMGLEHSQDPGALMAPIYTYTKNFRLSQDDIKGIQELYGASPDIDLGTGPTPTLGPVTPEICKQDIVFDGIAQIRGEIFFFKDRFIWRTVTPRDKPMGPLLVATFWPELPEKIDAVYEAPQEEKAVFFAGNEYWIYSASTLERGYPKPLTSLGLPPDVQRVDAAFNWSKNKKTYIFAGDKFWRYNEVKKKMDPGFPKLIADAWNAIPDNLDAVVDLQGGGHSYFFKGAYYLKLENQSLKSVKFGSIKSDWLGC

Prothrombin = Prothrombin (Bos taurus, UniProt P00735); assay: thrombin inhibition, dose response, biochemical, fluorescence polarization, uHTS hits (AID 602369); assay type: functional
CHO-K1 = assay: (§1) Counterscreen for antagonists of the orexin 1 receptor (OX1R; HCRTR1): Homogeneous time resolved fluorescence (HTRF)-based cell-based dose response assay to identify antagonists of the parental CHO-K1 cell line. [Related pubchem assays (depositor defined):AID434989, AID435008, AID463079, AID485270, AID492963, AID492964, AID492965, AID493232, AID504699, AID504701]; assay type: functional; details: Cricetulus griseus
[4] = as §1, with “Fluorescence-based” for “Homogeneous time resolved fluorescence (HTRF)-based”, “cell-based high throughput” for “cell-based”, “CHO” for “CHO-K1”; assay type: functional
[5] = target: T1, Orexin/Hypocretin receptor type 1 (Homo sapiens, UniProt O43613); assay: Homogeneous Time Resolved Fluorescence (HTRF)-based cell-based high throughput dose response assay for antagonists of the orexin 1 receptor (OX1R; HCRTR1). [Related pubchem assays (depositor defined):AID434989, AID435008, AID463079, AID485270, AID492963, AID492964, AID492965, AID493232, AID504717, AID504718]; assay type: functional
T1 sequence (O43613 whole entry): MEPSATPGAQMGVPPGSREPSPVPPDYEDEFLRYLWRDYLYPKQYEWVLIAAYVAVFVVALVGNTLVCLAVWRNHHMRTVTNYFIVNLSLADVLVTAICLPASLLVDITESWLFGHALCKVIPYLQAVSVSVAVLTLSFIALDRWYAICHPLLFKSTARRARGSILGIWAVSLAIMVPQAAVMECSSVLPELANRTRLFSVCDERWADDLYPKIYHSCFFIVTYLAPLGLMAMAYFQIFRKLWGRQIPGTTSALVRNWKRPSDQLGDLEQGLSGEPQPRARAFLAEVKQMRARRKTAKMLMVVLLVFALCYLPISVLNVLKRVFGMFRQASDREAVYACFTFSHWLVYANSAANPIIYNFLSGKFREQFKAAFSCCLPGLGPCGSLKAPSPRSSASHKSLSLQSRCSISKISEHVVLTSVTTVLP

[6] = target: T1, Orexin/Hypocretin receptor type 1; assay: Fluorescence-based cell-based high throughput dose response assay for antagonists of the orexin 1 receptor (OX1R; HCRTR1). [Related pubchem assays (depositor defined):AID434989, AID435008, AID463079, AID485270, AID492963, AID492964, AID492965, AID493232, AID504717, AID504718]; assay type: functional
Orexin receptor type 2 [7] = target: T2, Orexin receptor type 2 (Homo sapiens, UniProt O43614); assay: Counterscreen assay for antagonists of the orexin 1 receptor (OX1R; HCRTR1): Fluorescence-based cell-based dose response assay for antagonists of the orexin 2 receptor (OX2R; HCRTR2), run by assay provider.; assay type: functional
T2 sequence (O43614 whole entry): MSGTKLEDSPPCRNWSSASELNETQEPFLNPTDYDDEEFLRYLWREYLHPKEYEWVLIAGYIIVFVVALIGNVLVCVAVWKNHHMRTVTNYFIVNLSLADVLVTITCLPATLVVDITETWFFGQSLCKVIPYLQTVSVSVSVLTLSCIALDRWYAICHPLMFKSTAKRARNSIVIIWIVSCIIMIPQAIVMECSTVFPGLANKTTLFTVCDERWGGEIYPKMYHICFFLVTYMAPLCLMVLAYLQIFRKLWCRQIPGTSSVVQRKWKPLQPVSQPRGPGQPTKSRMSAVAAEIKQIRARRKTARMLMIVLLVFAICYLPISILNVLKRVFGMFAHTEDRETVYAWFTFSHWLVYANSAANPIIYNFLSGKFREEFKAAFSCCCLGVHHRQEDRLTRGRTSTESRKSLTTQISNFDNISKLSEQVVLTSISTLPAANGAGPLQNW

Orexin receptor type 2 [8] = target: T2, Orexin receptor type 2; assay: Counterscreen assay for antagonists of the orexin 1 receptor (OX1R; HCRTR1): Homogeneous Time Resolved Fluorescence (HTRF)-based cell-based dose response assay for antagonists of the orexin 2 receptor (OX2R; HCRTR2), run by assay provider.; assay type: functional
[9] = target: T3, Corticotropin-releasing factor receptor 2/Corticotropin-releasing factor-binding protein (Homo sapiens, UniProt P24387+Q13324); assay: Dose Response confirmation of uHTS hits for small molecule antagonists of the CRF-binding protein and CRF-R2 receptor complex.; assay type: functional; details: read-out: IC50_Mean
T3 sequence (Q13324 whole entry): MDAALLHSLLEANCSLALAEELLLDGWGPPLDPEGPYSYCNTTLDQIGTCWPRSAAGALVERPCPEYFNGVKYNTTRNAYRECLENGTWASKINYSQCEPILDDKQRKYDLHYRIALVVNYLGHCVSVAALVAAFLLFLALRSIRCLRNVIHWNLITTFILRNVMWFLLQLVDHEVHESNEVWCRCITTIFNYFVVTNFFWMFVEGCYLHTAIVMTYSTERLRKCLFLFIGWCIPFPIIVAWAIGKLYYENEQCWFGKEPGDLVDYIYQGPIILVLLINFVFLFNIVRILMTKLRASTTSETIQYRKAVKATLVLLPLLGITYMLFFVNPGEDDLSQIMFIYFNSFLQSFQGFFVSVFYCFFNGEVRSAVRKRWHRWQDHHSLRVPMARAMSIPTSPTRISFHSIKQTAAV
T3 sequence (P24387 whole entry): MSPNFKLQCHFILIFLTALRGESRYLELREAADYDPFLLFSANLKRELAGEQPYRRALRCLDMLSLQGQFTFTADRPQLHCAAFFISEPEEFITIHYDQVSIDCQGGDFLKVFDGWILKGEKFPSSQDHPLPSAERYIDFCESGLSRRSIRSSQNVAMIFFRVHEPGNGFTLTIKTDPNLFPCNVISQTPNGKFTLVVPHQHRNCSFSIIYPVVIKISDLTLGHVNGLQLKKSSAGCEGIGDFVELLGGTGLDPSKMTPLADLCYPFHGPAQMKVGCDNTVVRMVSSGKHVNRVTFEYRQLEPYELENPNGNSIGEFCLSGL

[10] = target: T3, Corticotropin-releasing factor receptor 2/Corticotropin-releasing factor-binding protein; assay: activators of CRF receptor 2 with binding protein – uHTS hits, confirmation (AID 602473); assay type: functional; details: read-out: EC50_Mean
[11] = CRF-BP/CRF-R2 complex antagonists, dose response, cell-based, uHTS hits, 384-well (AID 651639); assay type: functional, Homo sapiens; details: read-out: IC50_Mean

Sequence of DNA (cytosine-5)-methyltransferase 1 (P26358 whole entry): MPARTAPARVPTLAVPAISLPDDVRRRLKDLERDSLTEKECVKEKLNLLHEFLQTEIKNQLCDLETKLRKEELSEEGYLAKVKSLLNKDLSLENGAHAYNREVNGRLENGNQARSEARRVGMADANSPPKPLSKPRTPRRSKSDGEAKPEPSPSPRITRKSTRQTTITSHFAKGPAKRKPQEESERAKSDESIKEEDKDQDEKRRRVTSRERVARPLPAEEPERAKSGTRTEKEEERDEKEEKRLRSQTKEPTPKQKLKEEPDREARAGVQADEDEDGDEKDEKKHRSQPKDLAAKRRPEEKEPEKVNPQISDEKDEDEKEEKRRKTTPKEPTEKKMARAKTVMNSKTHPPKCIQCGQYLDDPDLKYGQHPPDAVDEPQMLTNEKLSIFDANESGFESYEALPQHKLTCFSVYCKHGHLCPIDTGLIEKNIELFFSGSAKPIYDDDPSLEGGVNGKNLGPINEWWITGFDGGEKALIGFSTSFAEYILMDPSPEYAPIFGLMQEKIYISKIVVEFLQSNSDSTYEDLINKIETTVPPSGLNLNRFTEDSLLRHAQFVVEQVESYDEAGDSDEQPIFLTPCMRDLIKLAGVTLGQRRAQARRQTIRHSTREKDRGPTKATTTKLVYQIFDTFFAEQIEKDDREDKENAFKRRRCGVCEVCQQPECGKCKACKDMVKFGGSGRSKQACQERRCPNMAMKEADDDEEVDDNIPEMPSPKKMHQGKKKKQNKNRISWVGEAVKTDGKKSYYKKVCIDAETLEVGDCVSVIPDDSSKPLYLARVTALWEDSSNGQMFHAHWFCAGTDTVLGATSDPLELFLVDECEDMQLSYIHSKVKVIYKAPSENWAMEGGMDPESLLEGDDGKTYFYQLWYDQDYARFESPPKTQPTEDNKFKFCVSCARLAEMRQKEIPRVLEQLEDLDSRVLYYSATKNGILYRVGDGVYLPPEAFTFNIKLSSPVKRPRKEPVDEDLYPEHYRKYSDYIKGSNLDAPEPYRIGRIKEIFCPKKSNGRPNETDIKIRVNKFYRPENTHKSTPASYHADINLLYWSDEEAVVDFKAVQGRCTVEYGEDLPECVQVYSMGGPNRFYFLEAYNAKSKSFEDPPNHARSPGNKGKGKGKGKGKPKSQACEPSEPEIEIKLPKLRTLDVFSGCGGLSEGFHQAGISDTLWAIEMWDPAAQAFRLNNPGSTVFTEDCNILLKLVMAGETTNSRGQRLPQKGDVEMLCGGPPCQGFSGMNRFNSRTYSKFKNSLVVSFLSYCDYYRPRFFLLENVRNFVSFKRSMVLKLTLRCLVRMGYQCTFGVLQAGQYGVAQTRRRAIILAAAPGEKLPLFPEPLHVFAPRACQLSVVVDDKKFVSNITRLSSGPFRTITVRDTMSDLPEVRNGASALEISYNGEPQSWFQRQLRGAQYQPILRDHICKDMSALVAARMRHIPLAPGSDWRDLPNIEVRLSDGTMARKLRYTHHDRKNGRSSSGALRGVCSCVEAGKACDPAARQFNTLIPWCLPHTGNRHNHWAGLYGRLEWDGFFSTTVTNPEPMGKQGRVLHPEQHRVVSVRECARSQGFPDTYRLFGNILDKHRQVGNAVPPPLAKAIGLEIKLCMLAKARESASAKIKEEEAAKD

Compound: O=C(O)CCCCCN1C(=O)/C(=C/c2cn(-c3ccccc3)nc2-c2cccs2)SC1=S
- IC50 [1]: 5.56 µM (active)
- IC50 [2]: 7.92 µM (active)
- IC50 [3]: 10.3 µM (active)
- IC50 (Prothrombin): 29 µM (active)

Compound: Cc1ccc(NC2CCCN(C(=O)c3cccc(-c4ncc[nH]4)c3)C2)cc1C (stereo not drawn)
- IC50 (CHO-K1): > 66.2 µM (inactive)
- IC50 [4]: > 49.7 µM (inactive)
- IC50 [5]: 0.175 µM (active)
- IC50 [6]: 2.99 µM (active)
- IC50 (Orexin receptor type 2 [7]): 17.1 µM (inactive)
- IC50 (Orexin receptor type 2 [8]): 4.48 µM (active)

Compound: Cc1noc(C)c1COC(=O)c1cc(C)n(-c2ccccc2)c1C
- IC50 [9]: 6.04 µM (active)
- EC50 [10]: > 53 µM (inactive)
- IC50 [11]: > 20 µM (inactive)
